pIC50: −log10 of the molar value.
What follows are compounds tested against T1, TrkA kinase (Homo sapiens, UniProt P04629) (assay: In vitro TrkA inhibitory activity using TR-FRET assay). Conditions: 5 ng TrkA, 500 μM ATP, values given as bins, read-out: TrkA inhibition in-vitro IC50.
T1 construct: purchased Upstate, USA
T1 sequence (P04629 33-796): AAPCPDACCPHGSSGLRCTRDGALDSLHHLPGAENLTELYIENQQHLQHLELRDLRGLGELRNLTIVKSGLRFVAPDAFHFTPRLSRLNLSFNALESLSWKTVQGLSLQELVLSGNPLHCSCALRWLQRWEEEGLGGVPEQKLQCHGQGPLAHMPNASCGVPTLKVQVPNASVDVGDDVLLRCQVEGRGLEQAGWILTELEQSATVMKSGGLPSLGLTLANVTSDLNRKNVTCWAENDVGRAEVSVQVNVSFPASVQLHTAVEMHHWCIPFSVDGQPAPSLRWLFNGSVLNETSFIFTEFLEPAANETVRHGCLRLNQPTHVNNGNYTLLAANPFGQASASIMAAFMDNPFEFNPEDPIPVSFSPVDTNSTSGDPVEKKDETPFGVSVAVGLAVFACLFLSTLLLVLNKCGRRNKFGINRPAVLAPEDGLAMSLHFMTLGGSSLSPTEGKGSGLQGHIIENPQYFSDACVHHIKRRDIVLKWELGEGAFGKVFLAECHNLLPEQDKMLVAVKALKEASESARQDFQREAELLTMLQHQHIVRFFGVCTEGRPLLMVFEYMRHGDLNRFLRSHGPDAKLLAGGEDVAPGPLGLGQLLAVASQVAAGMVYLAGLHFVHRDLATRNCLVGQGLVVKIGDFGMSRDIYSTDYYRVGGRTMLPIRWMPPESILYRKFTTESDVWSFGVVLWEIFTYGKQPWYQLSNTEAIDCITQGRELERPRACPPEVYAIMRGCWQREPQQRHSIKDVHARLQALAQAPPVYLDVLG
Format: biochemical
How it was run: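 TrkA kinase (5 ng) was preincubated 30 min at 20-35° C. with compound (1% DMSO final), then 40 nM ULight poly GT and 500 μM ATP were added for 30 min before an EDTA stop. Phosphorylation was detected by Eu anti-phosphotyrosine TR-FRET (ex 340, em 615/665 nm), and IC50 came from sigmoidal fits of 1/3 serial dilutions.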
`CCCN(C)S(=O)(=O)NC(=O)c1cnc2ccc(N3CCC[C@@H]3c3cc(F)ccc3OC)cn12` [Example 53] gave a pIC50 of 7.00 to 7.30. Work on `CCN(C)S(=O)(=O)NC(=O)c1cnc2ccc(N3CCC[C@@H]3c3cc(F)ccc3OC)cn12` [Example 55, (R)-N-(N-ethyl-N-methylsulfamoyl)-6-(2-(5-fluoro-2-methoxyphenyl)pyrrolidin-1-yl)imidazo[1,2-a]pyridine-3-carboxamide] yielded a pIC50 of at least 7.30. `COc1ccc(F)cc1[C@H]1CCCN1c1ccc2ncc(C(=O)NS(=O)(=O)N(C)CCF)n2c1` [Example 56, (R)-6-(2-(5-fluoro-2-methoxyphenyl)pyrrolidin-1-yl)-N-(N-(2-fluoroethyl)-N-methylsulfamoyl)imidazo[1,2-a]pyridine-3-carboxamide] gave a pIC50 of at least 7.30. `CCN(C)S(=O)(=O)NC(=O)c1cnc2ccc(N3C[C@@H](F)C[C@@H]3c3cc(F)ccc3OCCF)cn12` [Example 57, N-(N-ethyl-N-methylsulfamoyl)-6-((2R,4S)-4-fluoro-2-(5-fluoro-2-(2-fluoroethoxy)phenyl)pyrrolidin-1-yl)imidazo[1,2-a]pyridine-3-carboxamide] was tested, and the pIC50 was at least 7.30. In the case of `CC(C)(C)S(=O)(=O)NC(=O)c1cnc2ccc(N3C[C@@H](F)C[C@@H]3c3cc(F)ccc3OCCF)cn12` [Example 58, N-(tert-butylsulfonyl)-6-((2R,4S)-4-fluoro-2-(5-fluoro-2-(2-fluoroethoxy)phenyl)pyrrolidin-1-yl)imidazo[1,2-a] pyridine-3-carboxamide], the pIC50 was at least 7.30. `CC(C)(C)S(=O)(=O)NC(=O)c1cnc2ccc(N3C[C@@H](F)C[C@@H]3c3cc(F)ccc3O[C@@H]3CCOC3)cn12` [Example 59, N-(tert-butylsulfonyl)-6-((2R,4S)-4-fluoro-2-(5-fluoro-2-(((R)-tetrahydrofuran-3-yl)oxy)phenyl)pyrrolidin-1-yl)imidazo[1,2-a]pyridine-3-carboxamide] showed a pIC50 of at least 7.30. `CCN(C)S(=O)(=O)NC(=O)c1cnc2ccc(N3C[C@@H](F)C[C@@H]3c3cc(F)ccc3O[C@@H]3CCOC3)cn12` [Example 60, N-(N-ethyl-N-methylsulfamoyl)-6-((2R,4S)-4-fluoro-2-(5-fluoro-2-(((R)-tetrahydrofuran-3-yl)oxy)phenyl)pyrrolidin-1-yl)imidazo[1,2-a]pyridine-3-carboxamide] showed a pIC50 of at least 7.30. In the case of `CN(CCF)S(=O)(=O)NC(=O)c1cnc2ccc(N3C[C@@H](F)C[C@@H]3c3cc(F)ccc3O[C@@H]3CCOC3)cn12` [Example 62, 6-((2R,4S)-4-fluoro-2-(5-fluoro-2-(((R)-tetrahydrofuran-3-yl)oxy)phenyl)pyrrolidin-1-yl)-N-(N-(2-fluoroethyl)-N-methylsulfamoyl)imidazo[1,2-a]pyridine-3-carboxamide], the pIC50 was at least 7.30. Work on `CCN(C)S(=O)(=O)NC(=O)c1cnc2ccc(N3C[C@@H](F)C[C@@H]3c3cc(F)cc4c3OCCO4)cn12` [Example 68, N-(N-ethyl-N-methylsulfamoyl)-6-((2R,4S)-4-fluoro-2-(7-fluoro-2,3-dihydrobenzo[b][1,4]dioxin-5-yl)pyrrolidin-1-yl)imidazo[1,2-a]pyridine-3-carboxamide] yielded a pIC50 of 7.00 to 7.30. Compound `CCN(CC)S(=O)(=O)NC(=O)c1cnc2ccc(N3C[C@@H](F)C[C@@H]3c3cc(F)ccc3O[C@@H]3CCOC3)cn12` [Example 74, N—(N,N-diethylsulfamoyl)-6-((2R,4S)-4-fluoro-2-(5-fluoro-2-(((R)-tetrahydrofuran-3-yl)oxy)phenyl)pyrrolidin-1-yl)imidazo[1,2-a]pyridine-3-carboxamide] has a pIC50 of at least 7.30. `CCN(CCF)S(=O)(=O)NC(=O)c1cnc2ccc(N3C[C@@H](F)C[C@@H]3c3cc(F)ccc3O[C@@H]3CCOC3)cn12` [Example 75, N—(N-ethyl-N-(2-fluoroethyl)sulfamoyl)-6-((2R,4S)-4-fluoro-2-(5-fluoro-2-(((R)-tetrahydrofuran-3-yl)oxy)phenyl)pyrrolidin-1-yl)imidazo[1,2-a]pyridine-3-carboxamide] gave a pIC50 of at least 7.30. With `COCCN(C)S(=O)(=O)NC(=O)c1cnc2ccc(N3C[C@@H](F)C[C@@H]3c3cc(F)ccc3O[C@@H]3CCOC3)cn12` [Example 76, 6-((2R,4S)-4-fluoro-2-(5-fluoro-2-(((R)-tetrahydrofuran-3-yl)oxy)phenyl)pyrrolidin-1-yl)-N—(N-(2-methoxyethyl)-N-methylsulfamoyl)imidazo[1,2-a]pyridine-3-carboxamide] the pIC50 was at least 7.30. `CN(c1nccs1)S(=O)(=O)NC(=O)c1cnc2ccc(N3C[C@@H](F)C[C@@H]3c3cc(F)ccc3O[C@@H]3CCOC3)cn12` [Example 77, 6-((2R,4S)-4-fluoro-2-(5-fluoro-2-(((R)-tetrahydrofuran-3-yl)oxy)phenyl)pyrrolidin-1-yl)-N—(N-methyl-N-(thiazol-2-yl)sulfamoyl)imidazo[1,2-a]pyridine-3-carboxamide] gave a pIC50 of at least 7.30. With `Cc1ccc(N(C)S(=O)(=O)NC(=O)c2cnc3ccc(N4C[C@@H](F)C[C@@H]4c4cc(F)ccc4O[C@@H]4CCOC4)cn23)nn1` [Example 78, 6-((2R,4S)-4-fluoro-2-(5-fluoro-2-(((R)-tetrahydrofuran-3-yl)oxy)phenyl)pyrrolidin-1-yl)-N—(N-methyl-N-(6-methylpyridazin-3-yl)sulfamoyl)imidazo[1,2-a]pyridine-3-carboxamide] the pIC50 was at least 7.30. `CC(C)(C)S(=O)(=O)NC(=O)c1cnc2ccc(N3CCC[C@@H]3c3cc(F)ccc3OC3CCOCC3)cn12` [Example 79, (R)—N-(tert-butylsulfonyl)-6-(2-(5-fluoro-2-((tetrahydro-2H-pyran-4-yl)oxy)phenyl)pyrrolidin-1-yl)imidazo[1,2-a]pyridine-3-carboxamide] was tested, and the pIC50 was 6.30 to 7.00. With `CCN(C)S(=O)(=O)NC(=O)c1cnc2ccc(N3CCC[C@@H]3c3cc(F)ccc3OC3CCOCC3)cn12` [Example 80, (R)—N—(N-ethyl-N-methylsulfamoyl)-6-(2-(5-fluoro-2-((tetrahydro-2H-pyran-4-yl)oxy)phenyl)pyrrolidin-1-yl)imidazo[1,2-a]pyridine-3-carboxamide] the pIC50 was 7.00 to 7.30. For `CN(c1nccs1)S(=O)(=O)NC(=O)c1cnc2ccc(N3CCC[C@@H]3c3cc(F)ccc3OC3CCOCC3)cn12` [Example 81, (R)-6-(2-(5-fluoro-2-((tetrahydro-2H-pyran-4-yl)oxy)phenyl)pyrrolidin-1-yl)-N—(N-methyl-N-(thiazol-2-yl)sulfamoyl)imidazo[1,2-a]pyridine-3-carboxamide], the pIC50 was at least 7.30. With `COCCN(C)S(=O)(=O)NC(=O)c1cnc2ccc(N3CCC[C@@H]3c3cc(F)ccc3OC3CCOCC3)cn12` [Example 82, (R)-6-(2-(5-fluoro-2-((tetrahydro-2H-pyran-4-yl)oxy)phenyl)pyrrolidin-1-yl)-N—(N-(2-methoxyethyl)-N-methylsulfamoyl)imidazo[1,2-a]pyridine-3-carboxamide] the pIC50 was 7.00 to 7.30. `CCOCCN(C)S(=O)(=O)NC(=O)c1cnc2ccc(N3CCC[C@@H]3c3cc(F)ccc3OC3CCOCC3)cn12` [Example 83, (R)—N—(N-(2-ethoxyethyl)-N-methylsulfamoyl)-6-(2-(5-fluoro-2-((tetrahydro-2H-pyran-4-yl)oxy)phenyl)pyrrolidin-1-yl)imidazo[1,2-a]pyridine-3-carboxamide] showed a pIC50 of at least 7.30. In the case of `CN(c1ccccn1)S(=O)(=O)NC(=O)c1cnc2ccc(N3CCC[C@@H]3c3cc(F)ccc3OC3CCOCC3)cn12` [Example 84, (R)-6-(2-(5-fluoro-2-((tetrahydro-2H-pyran-4-yl)oxy)phenyl)pyrrolidin-1-yl)-N—(N-methyl-N-(pyridin-2-yl)sulfamoyl)imidazo[1,2-a]pyridine-3-carboxamide], the pIC50 was at least 7.30. For `Cc1nnc(N(C)S(=O)(=O)NC(=O)c2cnc3ccc(N4CCC[C@@H]4c4cc(F)ccc4OC4CCOCC4)cn23)s1` [Example 85, (R)-6-(2-(5-fluoro-2-((tetrahydro-2H-pyran-4-yl)oxy)phenyl)pyrrolidin-1-yl)-N—(N-methyl-N-(5-methyl-1,3,4-thiadiazol-2-yl)sulfamoyl)imidazo[1,2-a]pyridine-3-carboxamide], the pIC50 was at least 7.30. Work on `CN(c1nncs1)S(=O)(=O)NC(=O)c1cnc2ccc(N3CCC[C@@H]3c3cc(F)ccc3OC3CCOCC3)cn12` [Example 86, (R)-6-(2-(5-fluoro-2-((tetrahydro-2H-pyran-4-yl)oxy)phenyl)pyrrolidin-1-yl)-N—(N-methyl-N-(1,3,4-thiadiazol-2-yl)sulfamoyl)imidazo[1,2-a]pyridine-3-carboxamide] yielded a pIC50 of at least 7.30. Compound `Cc1ccc(N(C)S(=O)(=O)NC(=O)c2cnc3ccc(N4CCC[C@@H]4c4cc(F)ccc4OC4CCOCC4)cn23)nn1` [Example 87, (R)-6-(2-(5-fluoro-2-((tetrahydro-2H-pyran-4-yl)oxy)phenyl)pyrrolidin-1-yl)-N—(N-methyl-N-(6-methylpyridazin-3-yl)sulfamoyl)imidazo[1,2-a]pyridine-3-carboxamide] has a pIC50 of at least 7.30. `CCCN(C)S(=O)(=O)NC(=O)c1cnc2ccc(N3C[C@@H](F)C[C@@H]3c3cc(F)ccc3OC3CCOCC3)cn12` [Example 88, 6-((2R,4S)-4-fluoro-2-(5-fluoro-2-((tetrahydro-2H-pyran-4-yl)oxy)phenyl)pyrrolidin-1-yl)-N—(N-methyl-N-propylsulfamoyl)imidazo[1,2-a]pyridine-3-carboxamide] was tested, and the pIC50 was at least 7.30. For `COCCN(C)S(=O)(=O)NC(=O)c1cnc2ccc(N3C[C@@H](F)C[C@@H]3c3cc(F)ccc3OC3CCOCC3)cn12` [Example 89, 6-((2R,4S)-4-fluoro-2-(5-fluoro-2-((tetrahydro-2H-pyran-4-yl)oxy)phenyl)pyrrolidin-1-yl)-N—(N-(2-methoxyethyl)-N-methylsulfamoyl)imidazo[1,2-a]pyridine-3-carboxamide], the pIC50 was at least 7.30. Compound `CN(c1ccn(C)n1)S(=O)(=O)NC(=O)c1cnc2ccc(N3CCC[C@@H]3c3cc(F)ccc3F)cn12` [Example 90, (R)-6-(2-(2,5-difluorophenyl)pyrrolidin-1-yl)-N—(N-methyl-N-(1-methyl-1H-pyrazol-3-yl)sulfamoyl)imidazo[1,2-a]pyridine-3-carboxamide] has a pIC50 of at least 7.30.

Reference: US9394305B2, “Substituted imidazo[1,2-a]pyridine compounds as tropomyosin receptor kinase a (TrkA) inhibitors” (Dr. Reddy's Laboratories Ltd., priority 2014, dated 2016)
